Test results reported in patent publication US8993716B2, “Peptides used in the treatment and/or care of the skin, mucous membranes and/or hair and its use in cosmetic or pharmaceutical compositions” (Lipotec, S.A., priority 2009, dated 2015).
Peptide text beside a SMILES is read from it. * marks the point of attachment. Cbz = O=C(OCc1ccccc1)*

Tests used:
Hsp70 = Hsp70 synthesis stimulation assay (competitive ELISA); assay type: cell-based; conditions: human keratinocyte cell line, normalized to average basal values
Description: Hsp70 synthesis stimulation was assessed in a human keratinocyte cell line in the presence of the peptides of the invention. The cells were seeded (10^6 cells/6-well plate) and incubated for 24 hours in DMEM, after which the peptides were added to 200 μM in culture medium and were incubated for another 16-24 hours. The proteasome inhibitor MG-132 at 10 μM was used as a positive control and vehicle (culture medium) as a negative control. After the incubation period, the cells were washed with PBS, lysed and centrifuged at 12,000 rpm at 4° C. for 10 min. The supernatants were collected, and the Hsp70 levels were determined by carrying out a competitive ELISA assay following the protocols of the commercial kit (DuoSet IC human/mouse total HSP70 ELISA kit, R&D Systems Inc.)
Hsp70 levels were normalized with regards to the average basal values.

human keratinocytes = assay type: cell-based; conditions: 2 h, 0.1 mM
Description: The human keratinocytes were maintained in culture for 24 hours in 96-well plates for monolayer formation and the cells were pre-incubated in darkness with 0.1 mM of Ac-L-His-L-Pro-L-Leu-L-Arg-OH, Ac-L-His-L-Leu-L-Leu-L-Arg-OH in culture medium or with vehicle (culture medium) for 2 hours at 37° C. Subsequently the cells were radiated with UVB at an energy of 800 J/m^2. A control plate with vehicle was maintained in the dark without radiation for the same time at room temperature. After the irradiation period the cells' medium was replaced by a fresh medium and the cells were incubated for additional 24 hours. Cell viability was determined by the MTT method, adding 5 mg/mL of the MTT solution to each well and incubating the plate for 4 hours at 37° C., after which time the medium was removed, 100μL of DMSO was added and the plate was stirred at room temperature for 15 min. The optical density of each well was measured at 570 nm in a spectrophotometer.

Row | SMILES | Hsp70 increase (Hsp70; peptide 200 μM, 16-24 hours) [%] | CELL VIABILITY (human keratinocytes) [%] | Hsp70 increase (Hsp70; positive control MG-132 at 10 μM) [%]
1 | CC(=O)N[C@@H](Cc1c[nH]cn1)C(=O)N[C@@H](CC(C)C)C(=O)N[C@@H](CC(C)C)C(=O)N[C@@H](CCCNC(=N)N)C(=O)O [Ac-L-His-L-Leu-L-Leu-L-Arg-OH] (Ac-HLLR-OH) | 28 | 87.7 | –
2 | CC(=O)N[C@@H](Cc1c[nH]cn1)C(=O)N1CCC[C@H]1C(=O)N[C@@H](CC(C)C)C(=O)N[C@@H](CCCNC(=N)N)C(=O)O [Ac-L-His-L-Pro-L-Leu-L-Arg-OH] (Ac-HPLR-OH) | 42 | 97.2 | –
3 | CC(C)C[C@@H](C=O)NC(=O)[C@H](CC(C)C)NC(=O)[C@H](CC(C)C)NC(=O)OCc1ccccc1 [MG-132, reference compound] (Cbz-Leu-Leu-Leu-aldehyde) | – | – | 294
